# Test results reported in patent US9469615B2, “Quinoxalines and AZA-quinoxalines as CRTH2 receptor modulators” (Merck Sharp & Dohme Corp., priority 2010, dated 2016).
# Target: T1, hCRTH2 (Homo sapiens, UniProt Q9Y5Y4)
# T1 construct: expressed in transfected cells; host or cells: HEK (human embryonic kidney) cells expressing hCRTH2; membrane preparation
# T1 sequence (Q9Y5Y4 1-395): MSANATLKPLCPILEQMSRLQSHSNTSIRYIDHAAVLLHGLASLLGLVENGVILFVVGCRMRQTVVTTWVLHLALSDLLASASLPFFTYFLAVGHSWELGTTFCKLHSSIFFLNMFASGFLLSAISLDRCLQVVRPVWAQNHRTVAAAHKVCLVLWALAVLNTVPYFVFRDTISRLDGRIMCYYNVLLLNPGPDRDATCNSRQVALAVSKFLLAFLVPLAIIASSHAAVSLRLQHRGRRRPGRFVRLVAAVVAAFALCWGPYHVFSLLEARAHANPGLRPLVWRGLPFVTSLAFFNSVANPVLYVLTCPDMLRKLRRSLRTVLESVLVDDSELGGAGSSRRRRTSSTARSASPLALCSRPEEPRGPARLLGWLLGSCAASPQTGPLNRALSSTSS
# Assay: Radioligand binding assay ([3H]PGD2 competition, HEK-hCRTH2 membranes)
# Settings: [3H]PGD2 binding, rated A-E (Table A)
# In short: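 Competition against 3.0 nM [3H]PGD2 was run for 60 min at room temperature in pH 7.4 Tris-HCl buffer with EDTA, 2 mM MnCl2 and 1% DMSO, using 8-20 μg HEK-hCRTH2 membrane protein. 10 μM PGD2 set non-specific binding; filter-bound counts were read by scintillation.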
row,Ki [nM],SMILES
1,2.1 to 20,"CC(CCCc1nc2cc(C(=O)N3CC(c4ccccc4)C3)ccc2nc1-c1ccc(F)cc1)C(=O)O (stereo not drawn) [compound 208, 3-(4-fluorophenyl)-alpha-methyl-7-[(3-phenyl-1-azetidinyl)carbonyl]-2-quinoxalinepentanoic acid]"
2,0.1 to 2,"O=C(O)CCCCc1nc2cc(C(=O)NCc3cccc(F)c3)ccc2nc1-c1ccccc1 [15AC, 5-{7-[(3-fluorobenzyl)carbamoyl]-3-phenylquinoxalin-2-yl}pentanoic acid]"
3,0.1 to 2,"O=C(O)CCCCc1nc2cc(C(=O)N[C@H]3CCc4ccccc43)ccc2nc1-c1ccc(F)cc1 [compound 230, 7-[[(2,3-dihydro-1H-inden-1(S)-yl)amino]carbonyl]-3-(4-fluorophenyl)-2-quinoxalinepentanoic acid]"
4,2.1 to 20,"CC(NC(=O)c1ccc2nc(-c3ccccc3)c(CCCCC(=O)O)nc2c1)c1ccc(OC(F)(F)F)cc1 (centres unmarked) [15BD, 5-[3-phenyl-7-({1-[4-(trifluoromethoxy)phenyl]ethyl}carbamoyl)quinoxalin-2-yl] pentanoic acid]"
5,2.1 to 20,"O=C(O)Cc1cccc(CCc2nc3cc(C(=O)NCc4ccc(F)cc4)ccc3nc2-c2ccc(F)cc2)c1 [compound 193, 3-[2-[3-(4-fluorophenyl)-7-[[[(4-fluorophenyl)methyl]amino]carbonyl]-2-quinoxalinyl]ethyl] benzeneacetic acid]"
6,2.1 to 20,"C[C@@H](NC(=O)c1ccc2nc(-c3ccc(F)cc3)c(CCCCC(=O)O)nc2c1)c1ccccc1 [compound 132, 3-(4-fluorophenyl)-7-[[(1(R)-phenylethyl)amino]carbonyl]-2-quinoxalinepentanoic acid]"
7,2.1 to 20,"O=C(O)CCCCc1nc2cc(C(=O)NCc3ccc(C(F)(F)F)nc3)ccc2nc1-c1ccc(C(F)(F)F)cc1 [3AF, 3-[4-(trifluoromethyl)phenyl]-7-[[[[6-(trifluoromethyl)-3-pyridinyl]methyl]amino]-carbonyl]-2-quinoxaline-pentanoic acid]"
8,0.1 to 2,"O=C(O)CCCCc1nc2cc(C(=O)N[C@H](c3ccc(Cl)cc3)C(F)(F)F)ccc2nc1-c1ccc(F)cc1 [compound 228, 7-[[[1(R)-(4-chlorophenyl)-2,2,2-trifluoroethyl]amino]carbonyl]-3-(4-fluorophenyl)-2-quinoxalinepentanoic acid]"
9,20.1 to 200,"O=C(O)CCCCc1nc2cc(C(=O)Nc3ccc(F)cc3)ccc2nc1-c1ccc(F)cc1 [5O, 3-(4-fluorophenyl)-7-[[(4-fluorophenyl)amino]carbonyl]-2-quinoxalinepentanoic acid]"
10,20.1 to 200,"COCCN1CCN(C(=O)c2ccc3nc(-c4ccccc4)c(CCCCC(=O)O)nc3c2)CC1 [15M, 5-(7-{[4-(2-methoxy-ethyl)piperazin-1-yl]-carbonyl}-3-phenyl-quinoxalin-2-yl) pentanoic acid]"
11,2.1 to 20,COc1ccc(CNC(=O)c2ccc3nc(-c4ccc(Cl)cc4)c(CCC(C)CC(=O)O)nc3c2)cc1 (centres unmarked) [17H]
12,0.1 to 2,"C[C@@H](NC(=O)c1ccc2nc(-c3ccc(Cl)cc3)c(CCCCC(=O)O)nc2c1)c1cccc(Cl)c1 [compound 180, 3-(4-chlorophenyl)-7-[[[1(R)-(3-chlorophenyl)ethyl]amino]carbonyl]-2-quinoxalinepentanoic acid]"
13,2.1 to 20,"CC(CCc1nc2cc(C(=O)N3CC[C@H](c4ccccc4)C3)ccc2nc1-c1ccc(C(F)(F)F)cc1)CC(=O)O (stereo partly drawn) [17U, beta-methyl-7-[(3(R)-phenyl-1-pyrrolidinyl)carbonyl]-3-[4-(trifluoromethyl)phenyl]-2-quinoxalinepentanoic acid]"

# Same assay, conditions: [3H]PGD2 binding, values in text
row,Ki [nM],SMILES
1,14.6,"O=C(O)Cc1cccc(CCc2nc3cc(C(=O)NCc4ccc(F)cc4)ccc3nc2-c2ccc(F)cc2)c1 [compound 193, 3-[2-[3-(4-fluorophenyl)-7-[[[(4-fluorophenyl)methyl]amino]carbonyl]-2-quinoxalinyl]ethyl] benzeneacetic acid]"
2,0.6,"C[C@@H](NC(=O)c1ccc2nc(-c3ccc(Cl)cc3)c(CCCCC(=O)O)nc2c1)c1cccc(Cl)c1 [compound 180, 3-(4-chlorophenyl)-7-[[[1(R)-(3-chlorophenyl)ethyl]amino]carbonyl]-2-quinoxalinepentanoic acid]"

# Same assay, conditions: [3H]PGD2 competition, Table B
row,Ki [nM],SMILES
1,2.1 to 20,"O=C(O)CCCCc1nc2cc(C(=O)N3CCC(n4ncc5ccccc54)CC3)ccc2nc1-c1ccc(Cl)cc1 [compound 348, 5-(7-(4-(1H-indazol-1-yl)piperidine-1-carbonyl)-3-(4-chlorophenyl)quinoxalin-2-yl)pentanoic acid]"
2,2.1 to 20,"O=C(O)CCCCc1nc2cc(C(=O)N[C@H]3CCCc4cccnc43)ccc2nc1-c1ccccc1 [compound 371, (S)-8-(3-(4-carboxybutyl)-2-phenylquinoxaline-6-carboxamido)-5,6,7,8-tetrahydroquinolin-1-ium 2,2,2-trifluoroacetic acid]"
3,201 to 700,"Cc1cc(N2CCN(C(=O)c3ccc4nc(-c5ccc(Cl)cc5)c(CCCCC(=O)O)nc4c3)CC2)cc(C)n1 [compound 703, 5-(3-(4-chlorophenyl)-7-(4-(2,6-dimethylpyridin-4-yl)piperazine-1-carbonyl)quinoxalin-2-yl)pentanoic acid]"
4,2.1 to 20,"C[C@@H](CCCc1nc2cc(C(=O)N[C@H](C)c3ccc(F)cc3)ccc2nc1-c1ccc(F)cc1)C(=O)O [compound 484, (S)-5-(3-(4-fluorophenyl)-7-(((R)-1-(4-fluorophenyl)ethyl)carbamoyl)quinoxalin-2-yl)-2-methylpentanoic acid]"
5,20.1 to 200,"O=C(O)CCCCc1nc2cc(C(=O)N3CCCC3c3nccs3)ccc2nc1-c1ccc(Cl)cc1 (centres unmarked) [compound 659, 5-(3-(4-chlorophenyl)-7-(2-(thiazol-2-yl)pyrrolidine-1-carbonyl)quinoxalin-2-yl)pentanoic acid]"
6,2.1 to 20,"O=C(O)CCCCc1nc2cc(C(=O)N[C@@H]3CCCc4ccccc43)c(F)cc2nc1-c1ccccc1 [compound 716, (R)-5-(6-fluoro-3-phenyl-7-((1,2,3,4-tetrahydro-naphthalen-1-yl)carbamoyl)quinoxalin-2-yl)pentanoic acid]"
7,2.1 to 20,"C[C@H](NC(=O)c1ccc2nc(-c3ccc(Cl)cc3)c(CCCCC(=O)O)nc2c1)c1ccc2ccccc2c1 [compound 496, (S)-5-(3-(4-chlorophenyl)-7-((1-(naphthalen-2-yl)ethyl)carbamoyl)quinoxalin-2-yl)pentanoic acid]"
8,2.1 to 20,CC(CCCc1nc2cc(C(=O)N[C@@H]3CCCc4ccccc43)ccc2nc1-c1ccc(F)cc1)C(=O)O (some centres unmarked) [compound 454]
9,0.1 to 2,"O=C(O)CCCCc1nc2cc(C(=O)N3CCN(c4ccc(Cl)c(Cl)c4)CC3)ccc2nc1-c1ccc(Cl)cc1 [compound 624, 5-(3-(4-chlorophenyl)-7-(4-(3,4-dichlorophenyl)piperazine-1-carbonyl)quinoxalin-2-yl)pentanoic acid]"
10,20.1 to 200,"O=C(O)CCCCc1nc2cc(C(=O)N3CC(n4ccnc4)C3)ccc2nc1-c1ccc(Cl)cc1 [compound 325, 5-(7-(3-(1H-imidazol-1-yl)azetidine-1-carbonyl)-3-(4-chlorophenyl)quinoxalin-2-yl)pentanoic acid]"
11,2.1 to 20,"C[C@@H]1CN(c2ccc(F)cc2)CCN1C(=O)c1ccc2nc(-c3ccccc3)c(CCCCC(=O)O)nc2c1 [compound 265, (R)-5-(7-(4-(4-fluorophenyl)-2-methylpiperazine-1-carbonyl)-3-phenylquinoxalin-2-yl)pentanoic acid]"
12,2.1 to 20,"C[C@@H](CCCc1nc2cc(C(=O)N3CCN(c4ccccc4)CC3)ccc2nc1-c1ccc(F)cc1)C(=O)O [compound 524, (S)-5-(3-(4-fluorophenyl)-7-(4-phenylpiperazine-1-carbonyl)quinoxalin-2-yl)-2-methylpentanoic acid]"
13,2.1 to 20,"CC(CCCc1nc2cc(C(=O)N[C@@H]3CCCc4cc(Cl)ccc43)ccc2nc1-c1ccccc1)C(=O)O (stereo partly drawn) [compound 458, 5-(7-(((R)-6-chloro-1,2,3,4-tetrahydronaphthalen-1-yl)carbamoyl)-3-phenylquinoxalin-2-yl)-2-methylpentanoic acid]"
14,2.1 to 20,"O=C(O)CCCCc1nc2cc(C(=O)NC3C(=O)Nc4ccccc43)ccc2nc1-c1ccc(Cl)cc1 (centres unmarked) [compound 566, 5-(3-(4-chlorophenyl)-7-((2-oxoindolin-3-yl)carbamoyl)quinoxalin-2-yl)pentanoic acid]"
15,0.1 to 2,"O=C(O)CCCCc1nc2cc(C(=O)N3CCN(c4ccccc4C(F)(F)F)CC3)ccc2nc1-c1ccc(Cl)cc1 [compound 600, 5-(3-(4-chlorophenyl)-7-(4-(2-(trifluoromethyl)phenyl)piperazine-1-carbonyl)quinoxalin-2-yl)pentanoic acid]"
16,2.1 to 20,"O=C(O)CCCCc1nc2cc(C(=O)N3CCC(N4Cc5ccccc5C4=O)CC3)ccc2nc1-c1ccc(Cl)cc1 [compound 316, 5-(3-(4-chlorophenyl)-7-(4-(1-oxoisoindolin-2-yl)piperidine-1-carbonyl)quinoxalin-2-yl)pentanoic acid]"
17,20.1 to 200,"O=C(O)CCCCc1nc2cc(C(=O)N[C@H]3CCS(=O)(=O)c4ccccc43)ccc2nc1-c1ccccc1 [compound 714, (S)-5-(7-((1,1-dioxidothiochroman-4-yl)carbamoyl)-3-phenylquinoxalin-2-yl)pentanoic acid]"
18,20.1 to 200,O=C(c1ccc2nc(-c3ccc(F)cc3)c(CCCC(F)(F)C(=O)O)nc2c1)N1CCN(c2ccccc2)CC1 [compound 530]
19,2.1 to 20,"COc1ccc2c(c1)CCCC2NC(=O)c1ccc2nc(-c3ccc(Cl)cc3)c(CCCCC(=O)O)nc2c1 (centres unmarked) [compound 312, 5-(3-(4-chlorophenyl)-7((6-methoxy-1,2,3,4-tetrahydronaphthalen-1-yl)carbamoyl)quinoxalin-2-yl)pentanoic acid]"
20,2.1 to 20,"O=C(O)CCCCc1nc2cc(C(=O)NC3CCCOc4ccccc43)ccc2nc1-c1ccccc1 (centres unmarked) [compound 294, 5-(3-phenyl-7-((2,3,4,5-tetrahydrobenzo[b]oxepin-5-yl)carbamoyl)quinoxalin-2-yl)pentanoic acid]"
